Holding throughout (format): functional, cell-based
The subject of one assay is RKO. The assay is described as follows: Cytotoxicity against human RKO cells after 24 hrs by MTT assay.
The subject of another assay is SW-620. The assay can be described thus: Cytotoxicity against human SW620 cells after 24 hrs by MTT assay. As to conditions: SW-620, 24 h. A general note: Formazan colour is commonly taken as a measure of viable cells.
A further assay has as its system LoVo. The assay is described as follows: Cytotoxicity against human LoVo cells after 24 hrs by MTT assay.

The IC50 is the concentration needed to halve the response being measured. Low values mean greater potency in that assay, high ones weaker potency in that assay. In the case of `C=C(C)[C@@]12O[C@@]3(/C=C/C=C/CCCCC)O[C@@H]1[C@@H]1[C@@H]4O[C@]4(CO)[C@@H](O)[C@]4(O)C(=O)C(C)=C[C@H]4[C@@]1(O3)[C@H](C)[C@H]2OC(=O)CCC`, the half-maximal inhibitory concentration (IC50) with RKO amounted to 9.7 µM; with SW-620, 5.2 µM.

For `C=C(C)[C@@]12O[C@@]3(c4ccccc4)O[C@@H]1[C@@H]1[C@@H]4O[C@]4(CO)[C@@H](O)[C@]4(O)C(=O)C(C)=C[C@H]4[C@@]1(O3)[C@H](C)[C@H]2OC(=O)CCC`, the IC50 in the assay with LoVo, in the assay on RKO and with SW-620 was over 10 µM throughout.

On to `O=c1[nH]cc(F)c(=O)[nH]1` [FLUOROURACIL], for which the IC50 with RKO is over 10 µM; in the assay with SW-620, 10 µM.

With `C=C(C)[C@@]12O[C@@]3(/C=C/C=C/C=C\CCC)O[C@@H]1[C@@H]1[C@@H]4O[C@]4(CO)[C@@H](O)[C@]4(O)C(=O)C(C)=C[C@H]4[C@@]1(O3)[C@H](C)[C@H]2OC(=O)c1ccccc1`, the IC50 in the assay with LoVo, in the assay on RKO and in the assay with SW-620 was over 10 µM in each case.

For the compound `C=C(C)[C@@]12O[C@@]3(c4ccccc4)O[C@@H]1[C@@H]1[C@@H]4O[C@]4(CO)[C@@H](O)[C@]4(O)C(=O)C(C)=C[C@H]4[C@@]1(O3)[C@H](C)[C@H]2OC(=O)C(C)C`, the IC50 in the assay on LoVo, in the assay with RKO and with SW-620 was over 10 µM each time.

`C=C(C)[C@@]1(O)[C@H](OC(=O)/C=C/C=C/C=C/CCC)[C@@H]2[C@@H]3O[C@]3(CO)[C@@H](O)[C@]3(O)C(=O)C(C)=C[C@H]3[C@@]2(O)[C@H](C)[C@H]1OC(C)=O`: the IC50 with LoVo, in the assay with RKO and in the assay with SW-620 was over 10 µM each time.

For `C=C(C)[C@@]1(O)[C@H](OC(=O)/C=C/C=C/CCCCC)[C@@H]2[C@H](O)[C@@](O)(CO)[C@@H](O)[C@]3(O)C(=O)C(C)=C[C@H]3[C@@]2(O)[C@H](C)[C@H]1OC(C)=O`, the IC50 with LoVo, with RKO and with SW-620 was over 10 µM in each case.

As for `C=C(C)[C@@]12O[C@@]3(/C=C/C=C/CCCCC)O[C@@H]1[C@@H]1[C@@H]4O[C@]4(CO)[C@@H](O)[C@]4(O)C(=O)C(C)=C[C@H]4[C@@]1(O3)[C@H](C)[C@H]2OC(C)=O` [YUANHUADINE], the IC50 in the assay with LoVo, in the assay with RKO and with SW-620 was over 10 µM throughout.

As to `C=C(C)[C@@]12O[C@@]3(/C=C/C=C/CCCCC)O[C@@H]1[C@@H]1[C@@H]4O[C@]4(CO)[C@@H](O)[C@]4(O)C(=O)C(C)=C[C@H]4[C@@]1(O3)[C@H](C)[C@H]2OC(=O)CC`, the IC50 with LoVo, in the assay with RKO and with SW-620 was over 10 µM each time.

Turning to `C=C(C)[C@@]12O[C@@]3(/C=C/C=C/CCCCC)O[C@@H]1[C@@H]1[C@@H]4O[C@]4(CO)[C@@H](O)[C@]4(O)C(=O)C(C)=C[C@H]4[C@@]1(O3)[C@H](C)[C@H]2OC(=O)C(C)C`, the IC50 in the assay on LoVo, with RKO and with SW-620 was over 10 µM each time.

Consider `C=C(C)[C@@]12O[C@@]3(/C=C/C=C/CCCCC)O[C@@H]1[C@@H]1[C@@H]4O[C@]4(CO)[C@@H](O)[C@]4(O)C(=O)C(C)=C[C@H]4[C@@]1(O3)[C@H](C)[C@H]2O`, for which the IC50 with LoVo, in the assay on RKO and with SW-620 was over 10 µM each time.

With `C=C(C)[C@@]1(O)[C@H](O)[C@@H]2[C@@H]3O[C@]3(CO)[C@@H](O)[C@]3(O)C(=O)C(C)=C[C@H]3[C@@]2(O)[C@H](C)[C@H]1OC(C)=O`, the 50% inhibitory concentration (IC50) with LoVo, with RKO and with SW-620 was over 10 µM in each case.

Regarding `C=C(C)[C@@]12O[C@@]3(c4ccccc4)O[C@@H]1[C@@H]1[C@@H]4O[C@]4(CO)[C@@H](O)[C@]4(O)C(=O)C(C)=C[C@H]4[C@@]1(O3)[C@H](C)[C@H]2OC(=O)c1ccccc1`, the concentration for half-maximal inhibition (IC50) in the assay on LoVo, with RKO and with SW-620 was over 10 µM in each case.

Regarding `C=C(C)[C@@]1(O)[C@H](OC(=O)/C=C/C=C/CCCCC)[C@@H]2[C@@H]3O[C@]3(CO)[C@@H](O)[C@]3(O)C(=O)C(C)=C[C@H]3[C@@]2(O)[C@H](C)[C@H]1OC(C)=O`, the IC50 in the assay on LoVo, in the assay with RKO and in the assay on SW-620 was over 10 µM throughout.

As for `C=C(C)[C@@]1(O)[C@H](OC(=O)/C=C/C=C/CCCCC)[C@@H]2[C@H](O)[C@@](O)(CO)[C@@H](O)[C@]3(O)C(=O)C(C)=C[C@H]3[C@@]2(O)[C@H](C)[C@H]1OC(=O)c1ccccc1`, the IC50 with LoVo, with RKO and in the assay on SW-620 was over 10 µM throughout.

Turning to `C=C(C)[C@@]12O[C@@]3(/C=C/C=C\CCCCC)O[C@@H]1[C@@H]1[C@@H]4O[C@]4(CO)[C@@H](O)[C@]4(O)C(=O)C(C)=C[C@H]4[C@@]1(O3)[C@H](C)[C@H]2OC(=O)c1ccccc1`, the results for the IC50 in the assay on RKO and in the assay with SW-620 were over 10 µM and 8.5 µM, respectively.

Take `C=C(C)[C@@]12O[C@@]3(/C=C/C=C/CCCCC)O[C@@H]1[C@@H]1[C@@H]4O[C@]4(CO)[C@@H](O)[C@]4(O)C(=O)C(C)=C[C@H]4[C@@]1(O3)[C@H](C)[C@H]2OC(=O)c1ccccc1` [GNIDILATIDIN]: the values for the IC50 in the assay on RKO and in the assay with SW-620 were 6.5 µM and 4.3 µM, respectively.

Consider `C=C(C)[C@@]12O[C@@]3(c4ccccc4)O[C@@H]1[C@@H]1[C@@H]4O[C@]4(CO)[C@@H](O)[C@]4(O)C(=O)C(C)=C[C@H]4[C@@]1(O3)[C@H](C)[C@H]2OC(C)=O`, for which the IC50 in the assay on LoVo, with RKO and with SW-620 was over 10 µM throughout.

As for `C=C(C)[C@@]12O[C@@]3(c4ccccc4)O[C@@H]1[C@@H]1[C@H](O)[C@@](O)(CO)[C@@H](O)[C@]4(O)C(=O)C(C)=C[C@H]4[C@@]1(O3)[C@H](C)[C@H]2OC(=O)c1ccccc1`, the half-maximal inhibitory concentration (IC50) in the assay with LoVo, in the assay with RKO and with SW-620 was over 10 µM each time.

On to `C=C(C)[C@@]12O[C@@]3(/C=C/C=C\CCCCC)O[C@@H]1[C@@H]1[C@@H]4O[C@]4(CO)[C@@H](O)[C@]4(O)C(=O)C(C)=C[C@H]4[C@@]1(O3)[C@H](C)[C@H]2OC(C)=O`, for which the IC50 in the assay on LoVo, in the assay on RKO and in the assay on SW-620 was over 10 µM throughout.

Turning to `C=C(C)[C@@]1(O)[C@H](OC(=O)/C=C/C=C/CCCCC)[C@@H]2[C@@H]3O[C@]3(CO)[C@@H](O)[C@]3(O)C(=O)C(C)=C[C@H]3[C@@]2(O)[C@H](C)[C@H]1OC(=O)c1ccccc1` [YUANHUAOATE E], the IC50 in the assay on LoVo, with RKO and in the assay on SW-620 was over 10 µM in each case.

Regarding `C=C(C)[C@@]12O[C@@]3(/C=C/C=C/C=C\CCC)O[C@@H]1[C@@H]1[C@@H]4O[C@]4(CO)[C@@H](O)[C@]4(O)C(=O)C(C)=C[C@H]4[C@@]1(O3)[C@H](C)[C@H]2OC(C)=O`, the IC50 with LoVo, in the assay with RKO and in the assay on SW-620 was over 10 µM in each case.

The record behind these values is ChEMBL document CHEMBL4610097, “Daphnane Diterpenoids from Daphne genkwa Inhibit PI3K/Akt/mTOR Signaling and Induce Cell Cycle Arrest and Apoptosis in Human Colon Cancer Cells” (J Nat Prod, 2020).
